This note sets out measurements from PubChem BioAssay AID1963853 (Molecular Pharmacology Branch, DTP, NCI, 2024).

SMILES strings stand for the structures. Values joined by “and” are separate entries in the source; they are usually repeats but may differ in a detail not shown here. Equal entries are not always repeated.

The test relates to 266295-075-R-J1-PDC spheroid viability. The experiment in a line: Anticancer human tumor 266295-075-R-J1-PDC patient-derived head and neck squamous carcinoma cell line growth inhibition [POLQ]. To be noted: spheroids with HUVEC and MSC; for viability, T/C: stronger effect = lower value. In short, it runs like this: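 Three-cell-type spheroids modelling solid tumor plus stroma served as the readout system; POL inhibitors were tested individually and in combination, concentration ranges set by clinical Cmax where known.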
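Note: spheroids exposed to compounds for seven days before readout.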

A word on the IC50: it is the concentration that gives 50% inhibition. As usually defined, the viability, T/C is the result in the treated group divided by that in the control group, in per cent. With `CC[C@@]1(O)C(=O)OCc2c1cc1n(c2=O)Cc2cc3c(CN(C)C)c(O)ccc3nc2-1` + Nc1ccc(C#CCN(C(=O)Cc2ncc(C(F)(F)F)cc2C(F)(F)F)c2ccc(F)cc2)nn1, the 50% inhibitory concentration (IC50) runs as follows: (curve of first compound, second compound 0.0316 µM) more than 100 nM; (curve of first compound, second compound 0.1 µM) more than 100 nM; (curve of first compound, second compound 0.316 µM) more than 100 nM; (curve of first compound, second compound 1 µM) more than 100 nM; (curve of first compound, second compound 3.16 µM) more than 100 nM; (curve of first compound, second compound 10 µM) more than 100 nM. For the same compound, the viability, T/C by setting is: (second compound 0.0316 µM, first compound 0.000316 µM) 98.9%; (second compound 0.0316 µM, first compound 0.001 µM) 105%; (second compound 0.0316 µM, first compound 0.00316 µM) 105%; (second compound 0.0316 µM, first compound 0.01 µM) 95.1%; (second compound 0.0316 µM, first compound 0.0316 µM) 84%; (second compound 0.0316 µM, first compound 0.1 µM) 91.8%. For the same compound, the viability, T/C is 105% (second compound 0.1 µM, first compound 0.000316 µM); 110% (second compound 0.1 µM, first compound 0.001 µM); 97.5% (second compound 0.1 µM, first compound 0.00316 µM); 92.1% (second compound 0.1 µM, first compound 0.01 µM); 116% (second compound 0.1 µM, first compound 0.0316 µM); 114% (second compound 0.1 µM, first compound 0.1 µM). The viability, T/C is 101% (second compound 0.316 µM, first compound 0.000316 µM); 93.8% (second compound 0.316 µM, first compound 0.001 µM); 103% (second compound 0.316 µM, first compound 0.00316 µM); 107% (second compound 0.316 µM, first compound 0.01 µM); 116% (second compound 0.316 µM, first compound 0.0316 µM); 69.2% (second compound 0.316 µM, first compound 0.1 µM). Moreover, the viability, T/C is 91.2% (second compound 1 µM, first compound 0.000316 µM); 97.2% (second compound 1 µM, first compound 0.001 µM); 75.7% (second compound 1 µM, first compound 0.00316 µM); 102% (second compound 1 µM, first compound 0.01 µM); 98.7% (second compound 1 µM, first compound 0.0316 µM); 74.3% (second compound 1 µM, first compound 0.1 µM). The viability, T/C by setting is: (second compound 3.16 µM, first compound 0.000316 µM) 97.3%; (second compound 3.16 µM, first compound 0.001 µM) 101%; (second compound 3.16 µM, first compound 0.00316 µM) 82.5%; (second compound 3.16 µM, first compound 0.01 µM) 83.2%; (second compound 3.16 µM, first compound 0.0316 µM) 99.5%; (second compound 3.16 µM, first compound 0.1 µM) 88.6%. In addition, the viability, T/C (second compound 10 µM, first compound 0.000316 µM) is 97.2%; the viability, T/C (second compound 10 µM, first compound 0.001 µM) is 92.2%; the viability, T/C (second compound 10 µM, first compound 0.00316 µM) was 119%; the viability, T/C (second compound 10 µM, first compound 0.01 µM) is 85.7%; the viability, T/C (second compound 10 µM, first compound 0.0316 µM) was 94.4%; the viability, T/C (second compound 10 µM, first compound 0.1 µM) is 87.8%.

Regarding `COC1C(OC(N)=O)C(O)C(Oc2ccc3c(O)c(NC(=O)c4ccc(O)c(CC=C(C)C)c4)c(=O)oc3c2C)OC1(C)C` (stereo unspecified), the viability, T/C reads like this: (compound 0.0316 µM) 101% [middle of 13 runs]; (compound 1 µM) 101% [middle of 13 runs]. Besides, the IC50 (compound alone, run of 10/31/2023) was more than 10000 nM.

With `CCCS(=O)(=O)Nc1ccc(F)c(C(=O)c2c[nH]c3ncc(-c4ccc(Cl)cc4)cc23)c1F`, the viability, T/C is 123% and 120% and 97.3% (compound 0.0316 µM); 110% and 106% and 109% (compound 0.1 µM); 105% and 98.9% and 110% (compound 0.316 µM); 113% and 136% and 117% (compound 1 µM); 121% (2×) and 136% (compound 3.16 µM); 141% and 162% and 187% (compound 10 µM). Under “curve of compound”, the IC50 is more than 10000 nM.

For `CC(C)n1c(=O)n(C)c2cnc3cc(F)c(-c4ccc(OCCCN5CCCCC5)nc4)cc3c21`, the viability, T/C runs as follows: (compound 0.0316 µM) 127% and 94.5% and 93.5%; (compound 0.1 µM) 74.1% and 94.9% and 97.8%; (compound 0.316 µM) 107% and 111% and 96.5%; (compound 1 µM) 100% and 92.8% and 103%; (compound 3.16 µM) 89.6% and 91.6% and 94.1%; (compound 10 µM) 70.6% and 64.5% and 76.9%. Moreover, where the note is “curve of compound”, the IC50 was more than 10000 nM.

Turning to `O=C(Nc1ccc(O)c(NS(=O)(=O)c2ccc(F)cc2)c1)c1ccc(-c2ccccc2)cc1`, the viability, T/C was 119% and 92.8% and 88.2% (compound 0.0316 µM); 112% and 97.5% and 96.2% (compound 0.1 µM); 102% and 96.6% and 99.1% (compound 0.316 µM); 123% and 103% and 118% (compound 1 µM); 153% and 112% and 122% (compound 3.16 µM); 114% and 96.1% and 113% (compound 10 µM). For the same compound, under “curve of compound”, the IC50 was more than 10000 nM.
